Where two headings read alike, the source gives them in different places. Positions of bridges follow the written chain, without caps; N, C: chain ends. Non-standard residues stand in square brackets, D forms with d. Residues, ends and D or L forms follow the SMILES beside them. *: point of attachment. Ileψ(thiazoline)Cys = CC[C@H](C)[C@H](N)C1=N[C@H](C(=O)*)CS1; dOrn = NCCC[C@@H](N)C(=O)O; Nle = CCCC[C@H](N)C(=O)O; For = O=C*

The subject of assay [1] is Rabbit polymorphononuclear leukocytes (neutrophils). Type of assay: cell-based. The settings on record: for times more active than f-Met-Phe-OH: chemotactic activity and lysosomal enzyme secretion-inducing activity alike. On the procedure:
Rabbit polymorphononuclear leukocytes (neutrophils) were obtained 12 to 14 hours after the intraperitoneal injection of 0.1 percent glycogen, as described in Becker et al (Z. Immunitaetsforsch Exp. Klin. Immunol., Volume 143, Page 466 1972). They were washed in Hanks' balanched salt solution containing 0.01 M tris (hydroxymethyl) aminomethane, pH 7.2, 1 mg/ml of glucose, and 1 mg/ml of crystalline bovine serum albumin. The Hanks' balanced salt solution was the buffer used throughout the work.
The assay employed a modified Boyden chamber as described by Becker et al, supra. […] The loaded chambers were incubated for 30 minutes at 37° C. This time interval was chosen as giving, for the particular batch of filters used, the greatest difference between the number of cells moving into the filter with no peptide in the lower compartment (background) and the maximum number of cells moving into the filter when stimulated by peptide. At the end of the incubation the filters were removed and stained and the number of cells in five high-power (400 magnification) fields (5 HPF) were counted and averaged. The results reported are the means of duplicate chambers.
The migration enhancing activities of different peptides were compared essentially as described by Schiffmann et al (J. Immunol., Volume […], Page 1830, 1975) and Showell et al (J. Immunol., Volume 116, Page 99, 1976). In measuring the relative activity of the peptides, a peptide was diluted so that each concentration was one quarter that of the next higher concentration. The concentrations of peptides were chosen on the basis of preliminary experiments to cover the range giving minimum to maximal activity. The chemotactic activity plotted against the logarithm of the molar concentration of peptide yielded a sigmoidal-shaped dose-response curve. Different peptides tested at the same time with the same cells gave curves which were parallel to each other in their linear portions and had the same maximum. The activities of the different peptides are reported as the ED50, i.e., the concentration of chemotactic factor giving 50 percent of the maximum activity.
The results are reported as the means ED50 ±SE (standard error) as determined by at least three separate experiments. In this assay, the lower the value of the ED50, the greater is the chemotactic activity.

A further assay deals with neutrophils. It is filed as cell-based, rabbit.
In the next assay the test system is leukocytes. Conditions: relatively weak chemoattractants; cited from earlier work.
The subject of the next assay is peritoneal neutrophils. Kind of assay: Test for true chemotaxis (Zigmond and Hirsch technique). Type of assay: cell-based, rabbit. The text has this: Increased penetration of cells into or through the filter of a Boyden chamber system under the stimulus of a chemical agent is generally taken as indicating the chemotactic activity of the agent. Zigmond and Hirsch (J. Exp. Med., Volume 137, Page 387, 1973) have pointed out that the increased migration could result from a response directed by the chemical gradient, that is from chemotaxis, or from increased random locomotion or both. These authors have described a technique for determining if the movement of the cells into the filter of a Boyden chamber system under the influence of different gradients is greater than could be expected on the basis of increased rates of locomotion alone and to that extent is due to a true chemotactic response.
In testing f-Met-Leu-Phe-OH for true chemotaxis, 5×10^6 /ml of washed peritoneal neutrophils obtained twelve hours after the administration of 0.1 percent glycogen were suspended in varying concentrations of the peptide and placed in the upper compartment of a modified Boyden chamber. […] Using the micrometer of the fine adjustment of the microscope, the distance was measured from the top of the filter to the farthest plane of focus still containing two cells. This distance was determined across five fields and averaged. […] The test results were analyzed as described by Zigmond and Hirsch. […]

Assay [2] has as its target T1, surface receptor of rabbit polymorphonuclear leukocytes (Oryctolagus cuniculus, UniProt Q05394).
T1 construct: endogenous in cells; host or cells: rabbit polymorphonuclear leukocytes (neutrophils)
T1 sequence (Q05394 1-352): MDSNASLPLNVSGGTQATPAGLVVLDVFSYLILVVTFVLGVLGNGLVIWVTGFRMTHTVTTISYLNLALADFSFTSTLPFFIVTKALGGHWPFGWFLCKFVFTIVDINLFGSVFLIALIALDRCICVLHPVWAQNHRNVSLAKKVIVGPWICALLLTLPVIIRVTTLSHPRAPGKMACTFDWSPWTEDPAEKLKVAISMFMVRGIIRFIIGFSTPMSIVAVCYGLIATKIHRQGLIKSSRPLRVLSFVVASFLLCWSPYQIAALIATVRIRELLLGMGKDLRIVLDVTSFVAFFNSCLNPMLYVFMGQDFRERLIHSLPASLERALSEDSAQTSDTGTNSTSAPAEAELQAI
Briefly: Inhibition of F-Nle-leu (3H)PHE binding to rabbit PMN.

The test system of assay [3] is Escherichia coli ATCC 25922. Briefly: Kirby-Bauer disc assay, inhibitory zone size. Type of assay: cell-based. Conditions: E. coli, alone.
Procedure: In these tables antimicrobial activity is expressed as inhibitory zone size as performed by the Kirby-Bauer assay.
The experiments in Tables 10-14 were performed using the following bacteria, media and experimental protocol:
The bacteria were Escherichia coli ATCC 25922 and Pseudomonas aeruginosa ATCC 27835.
The media was Trypticase soy agar (Baltimore Biological Laboratories, BBL) used as a general growth medium. Broth media was Brain heart infusion broth (BBL) for E. coli and medium 81 [trypticase soy broth without dextrose plus 1% potassium nitrate] for P. aeruginosa.
Antimicrobial susceptibility was tested on M9 medium [a glucose minimal salts medium (Miller, 1972)] solidified with 1.5% agar (Difco) for the base or 0.7% agar for overlay.
The following is the experimental protocol: Broth cultures of E. coli or P. aeruginosa were grown overnight in broth at 35° C. Cultures were diluted to visually match a 0.5 McFarland turbidity standard (Matsen and Barry, 1974); the numbers of organisms in this suspension ordinarily were .congruent.10^8 viable cells per ml. Ten microliter (ul) was inoculated into 10 ml. of 0.7% M9 agar that was melted and cooled to 46°-50° C. This was overlaid onto a 50 ml base of 1.5% M9 agar in 15 cm diameter petri dishes. The agar overlay was allowed to harden at room temperature for 30 min. Antimicrobial tests disks were placed on the surface of the agar, and the plates were incubated overnight at 35° C. Diameters of zones of inhibition of bacterial growth were measued with a vernier caliper and recorded to the nearest 0.1 mm.
Assay [4] has as its system PMN (neutrophil) from human peripheral blood.
Procedure: (§1) The neutrophil (PMN) experiments used 3μ nitrocellulose filters and the monocyte (MN) experiments used 5μ polycarbonate filters. PMNs and MNs were prepared from human peripheral blood by Ficoll-Hypaque and dextran sedimentation techniques. […] PMN experiments were incubated at 37° C. for 3 hours, MN experiments for 90 minutes. After this the filters were removed and stained and counted visually with a microscope.
The subject of assay [5] is MN (monocyte) from human peripheral blood.
Procedure: as §1
[6] abbreviates: concentration giving 50 percent of maximum activity, mean of at least three experiments, 30 minutes at 37° C.
[7] abbreviates: molar concentration causing 50 percent of maximal release, 10 μg/ml cytochalasin B, five minutes at 37° C.
Where [8] appears, read: [F-Met-Leu-Phe] 10^-6, Sulfadiazine 5 μg.
The mark [9] stands for this setting: [F-Met-Leu-Phe] 10^-6, Sulfadiazine 50 μg.
Setting [10] is: [F-Met-Leu-Phe] 10^-6, Sulfadiazine 100 μg.
Where [11] appears, read: [F-Met-Leu-Phe] 10^-7, Sulfadiazine 5 μg.
Setting [12] is: [F-Met-Leu-Phe] 10^-7, Sulfadiazine 50 μg.
Where [13] appears, read: [F-Met-Leu-Phe] 10^-7, Sulfadiazine 100 μg.
Where [14] appears, read: [F-Met-Leu-Phe] 10^-7, Sulfadiazine 250 μg.
The mark [15] stands for this setting: [F-Met-Leu] 10^-3, Sulfadiazine 5 μg.
Where [16] appears, read: [F-Met-Leu] 10^-3, Sulfadiazine 25 μg.
[17] abbreviates: [F-Met-Leu] 10^-3, Sulfadiazine 50 μg.
Where [18] appears, read: [F-Met-Leu] 10^-3, Sulfadiazine 100 μg.
The mark [19] stands for this setting: [F-Met-Leu] 10^-3, Sulfadiazine 250 μg.
The mark [20] stands for this setting: [F-Met-Leu] 10^-4, Sulfadiazine 5 μg.
Where [21] appears, read: [F-Met-Leu] 10^-4, Sulfadiazine 25 μg.
The mark [22] stands for this setting: [F-Met-Leu] 10^-4, Sulfadiazine 50 μg.
Where [23] appears, read: [F-Met-Leu] 10^-4, Sulfadiazine 100 μg.
[24] abbreviates: [F-Met-Leu] 10^-4, Sulfadiazine 250 μg.

On to `CSCC[C@H](NC=O)C(=O)N[C@@H](Cc1ccccc1)C(=O)N[C@@H](CC(C)C)C(=O)O` [f-Met-Phe-Leu-OH] (For-Met-Phe-Leu-OH), for which, in assay [1] (chemotactic and lysosomal enzyme secretion-inducing activities), the “times less active than f-Met-Leu-Phe-OH” value came to 500 times.
As for `CSCC[C@H](NC(=O)[C@H](CCSC)NC(=O)[C@H](CCSC)NC(=O)[C@H](CCSC)NC=O)C(=O)O` [f--Met--Met--Met--Met--OH] (For-MMMM-OH), the “Chemotactic Activity ED50 ± SE” value in assay [1] is given as 3.0 ± 0.13 × 10^-10 M. Further, in the assay on neutrophils, the “ED50 ± SE B-Glucoronidase” value is given as 3.0 ± 0.73 × 10^-9 M and the “ED50 ± SE Lysosyme” value is 2.4 ± 0.34 × 10^-9 M.
Regarding `CSCC[C@H](NC=O)C(=O)N[C@@H](CCSC)C(=O)N[C@@H](Cc1ccccc1)C(=O)O` [f--Met--Met--Phe--OH] (For-Met-Met-Phe-OH), in assay [1] (setting [6]), the “Chemotactic Activity ED50 ± SE” value is listed as 2.1 ± 0.49 × 10^-10 M. Moreover, in the assay on neutrophils, the “ED50 ± SE B-Glucoronidase” value is on record as 1.8 ± 0.24 × 10^-9 M and the “ED50 ± SE Lysosyme” value is reported as 1.9 ± 0.4 × 10^-9 M.
With `CSCC[C@H](NC=O)C(=O)N[C@@H](Cc1ccccc1)C(=O)O` [f--Met--Phe--OH] (For-Met-Phe-OH), the “Chemotactic Activity ED50 ± SE” value in assay [1] (setting [6]) is reported as 4.1 ± 0.95 × 10^-7 M. For the same compound, the “ED50 ± SE B-Glucoronidase” value with neutrophils is 2.0 ± 0.42 × 10^-6 M. Also, the “ED50 ± SE Lysosyme” value in the assay with neutrophils (setting [7]) is recorded as 1.5 ± 0.39 × 10^-6 M.
`CC[C@H](C)[C@H](N)C1=N[C@H](C(=O)N[C@@H](CC(C)C)C(=O)N[C@H](CCC(=O)O)C(=O)N[C@H](C(=O)N[C@H]2CCCCNC(=O)[C@H](CC(N)=O)NC(=O)[C@@H](CC(=O)O)NC(=O)[C@H](Cc3cnc[nH]3)NC(=O)[C@@H](Cc3ccccc3)NC(=O)[C@H]([C@@H](C)CC)NC(=O)[C@@H](CCCN)NC2=O)[C@@H](C)CC)CS1` [bacitracin] ({Ileψ(thiazoline)Cys}-L[dE]IK[dOrn]I[dF]H[dD]N; lactam 4-C): the chemoattractant concentration in the assay with leukocytes is on record as 10^-5 to 10^-6 M.
Take `CCCC[C@H](NC=O)C(=O)N[C@@H](CC(C)C)C(=O)N[C@@H](Cc1ccccc1)C(=O)O` [f--Nle--Leu--Phe--OH] (For-[Nle]-Leu-Phe-OH): the “Chemotactic Activity ED50 ± SE” value in assay [1] is reported as 6.6 ± 1.2 × 10^-10 M. In the assay on neutrophils, the “ED50 ± SE B-Glucoronidase” value was 1.9 ± 0.2 × 10^-9 M and the “ED50 ± SE Lysosyme” value was 1.5 ± 0.2 × 10^-9 M.
On to gramicidin, for which the chemoattractant concentration with leukocytes is 10^-5 to 10^-6 M.
Consider `CSCC[C@H](NC=O)C(=O)N[C@@H](CC(C)C)C(=O)N[C@@H](Cc1ccccc1)C(=O)O` [FMLP, formyl-methionyl-leucyl-phenylalanine], for which the “times more active than f-Met-Phe-OH” value in assay [1] is 5,000 times. The “Chemotactic Activity ED50 ± SE” value in assay [1] (setting [6]) is reported as 7.0 ± 1.7 × 10^-11 M. For the same compound, in the assay on neutrophils (setting [7]), the “ED50 ± SE B-Glucoronidase” value is 2.6 ± 0.32 × 10^-10 M and the “ED50 ± SE Lysosyme” value is given as 2.4 ± 0.31 × 10^-10 M. In addition, in the assay on peritoneal neutrophils (positive gradient (peptide below greater than above the filter)), the “distance cells moved farther than predicted” value is on record as “greater than 10 μm”. Moreover, in the assay on peritoneal neutrophils (sixty minutes at 37° C., 3.0 μm pore size filter), the “true chemotaxis (experimental vs predicted values)” value was “truly chemotactic”. The IC50 (usually the midpoint of a concentration-inhibition curve) in assay [2] came to 0.5 nM.
As for `Nc1ccc(S(=O)(=O)Nc2ncccn2)cc1` [Sulfadiazine, sulfadiazine], the entries for the “Zone Diameter” value in assay [3] (disc 10 μg) and in assay [3] (disc 25 μg) were 28.0 mm and 32.0 mm, respectively. The “% Inhibition PMN” value in assay [4] (setting [8]) turned out to be 10.0%; in assay [4] ([F-Met-Leu-Phe] 10^-6, Sulfadiazine 25 μg), 8.0%; in assay [4] (setting [9]), 39.5%; in assay [4] (setting [10]), 49.0%; in assay [4] (setting [11]) it was 16.8%; in assay [4] ([F-Met-Leu-Phe] 10^-7, Sulfadiazine 25 μg), 18.0%. The “% Inhibition PMN” value in assay [4] (setting [12]) is reported as 65.8%; in assay [4] (setting [13]), 70.8%; in assay [4] (setting [14]) it was 88.0%; in assay [4] (setting [15]) it was 19.0%; in assay [4] (setting [16]), 38.0%; in assay [4] (setting [17]) it was 48.7%. The “% Inhibition PMN” value in assay [4] (setting [18]) was found to be 73.3%; in assay [4] (setting [19]) it was 83.9%; in assay [4] (setting [20]), 1.0%; in assay [4] (setting [21]) it was 14.0%; in assay [4] (setting [22]), 37.5%; in assay [4] (setting [23]), 53.0%. The “% Inhibition PMN” value in assay [4] (setting [24]) turned out to be 41.0%. The “% Inhibition MN” value in assay [5] (setting [8]) is reported as 22.5%; in assay [5] (setting [9]), 21.0%; in assay [5] (setting [10]), 82.0%; in assay [5] (setting [11]), 14.6%; in assay [5] (setting [12]), 13.7%; in assay [5] (setting [13]) it was 41.7%. Also, the “% Inhibition MN” value was found to be 96.6% in assay [5] (setting [14]); 2.5% in assay [5] (setting [15]); 13.0% in assay [5] (setting [16]); 36.7% in assay [5] (setting [17]); 43.3% in assay [5] (setting [18]); 98.0% in assay [5] (setting [19]). Also, the “% Inhibition MN” value is recorded as 20.0% in assay [5] (setting [20]); 17.5% in assay [5] (setting [21]); 17.0% in assay [5] (setting [22]); 60.0% in assay [5] (setting [23]); 97.5% in assay [5] (setting [24]).
For the compound tyrocidin, the chemoattractant concentration with leukocytes is recorded as 10^-5 to 10^-6 M.
For `CSCC[C@H](NC=O)C(=O)N[C@@H](CC(C)C)C(=O)N[C@@H](Cc1ccccc1)C(=O)N[C@@H](CCCCN)C(=O)O` [f--Met--Leu--Phe--Lys--OH] (For-MLFK-OH), in assay [1], the “Chemotactic Activity ED50 ± SE” value was 7.0 ± 1.0 × 10^-10 M and the “times more active than f-Met-Phe-OH” value worked out at 500 times. Further, in the assay on neutrophils, the “ED50 ± SE B-Glucoronidase” value is 1.9 ± 0.3 × 10^-9 M and the “ED50 ± SE Lysosyme” value was 1.7 ± 0.5 × 10^-9 M.

The record behind these values is US4427660A, “Formyl-methionyl chemotatic peptide antibiotic conjugates useful in treating infections” (priority 1982, dated 1984).
